Laboratory results from patent publication US7381743B2, “Macrocycles for the treatment of cancer” (Leibniz-Institut Fuer Pflanzenbiochemie (IPB), priority 2003, dated 2008).
Where two headings read alike, the source gives them in different places.

What was measured:
Format in all cases: cell-based
[1] = test system: MCF7 breast cancer; experiment: Proliferation assay (acidic phosphatase), MCF7; details: Homo sapiens, read-out: Proliferation assay GI50, IC-50, MCF7 breast cancer
[2] = test system: A 549 lung cancer; experiment: Proliferation assay (acidic phosphatase), A 549; details: Homo sapiens, A549, 120 h, read-out: Proliferation assay GI50, IC-50, A 549 lung cancer
Description: (§1) Proliferation assay GI50: acidic phosphatase, incubation period 5 days, IC-50 (μM)

[3] = test system: L 929 mouse fibroblasts; experiment: Proliferation assay (acidic phosphatase), L 929; details: L929, 120 h, read-out: Proliferation assay GI50, IC-50, L 929 mouse fibroblasts
Description: as §1

[4] = acidic phosphatase, incubation period 5 days

## C/C1=C/C[C@@H](/C(C)=C/c2csc(C)n2)OC(=O)CSC(C)(C)C(=O)[C@H](C)[C@@H](O)[C@@H](C)CCC1 [MC54690, (7R,8S,9S,13Z,16S)-8-hydroxy-5,5,7,9,13-pentamethyl-16-[(E)-1-methyl-2-(2-methyl-1,3-thiazol-4-yl)vinyl]-1-oxa-4-thiacyclohexadec-13-ene-2,6-dione]
[1]; MCF7, 120 h
  IC50: 45 nM
[2]
  IC50: 9 nM
[3]
  IC50: 274 nM

## C/C1=C/C[C@@H](/C(C)=C/c2cccc(C)n2)OC(=O)CSC(C)(C)C(=O)[C@H](C)[C@@H](O)/C(C)=C/CC1 [MC54849, (7R,8R,9E,13Z)-8-Hydroxy-5,5,7,9,13-pentamethyl-16-[(1E)-1-methyl-2-(6-methyl-pyridin-2-yl)-vinyl]-1-oxa-4-thia-cyclohexadec-9,13-dien-2,6-dion]
[1]; MCF7, 96 h
  IC50: 531 nM

## C/C1=C/C[C@@H](/C(C)=C/c2csc(C)n2)OC(=O)CS(=O)(=O)C(C)(C)C(=O)[C@H](C)[C@@H](O)[C@@H](C)CCC1 [MC-C5, (7R,8R,9S,13Z)-8-Hydroxy-5,5,7,9,13-pentamethyl-16-[(IE)-1-methyl-2-(2-methyl-thiazol-4-yl)-vinyl]-4,4-dioxo-1-oxa-4-thia-cyclohexadec-13-en-2,6-dion]
[1]; MCF7, 120 h
  IC50: > 10000 nM

## CC(=O)O[C@H]1C(=O)[C@@]2(C)[C@H]([C@H](OC(=O)c3ccccc3)[C@]3(O)C[C@H](OC(=O)[C@H](O)[C@@H](NC(=O)c4ccccc4)c4ccccc4)C(C)=C1C3(C)C)[C@]1(OC(C)=O)CO[C@@H]1C[C@@H]2O [Taxol, Paclitaxel, reference compound]
[1]; MCF7, 120 h, acidic phosphatase, incubation period 5 days
  IC50: 3 nM
[2]; [4]
  IC50: 6 nM
[3]; [4]
  IC50: 270 nM
